BigSolDB 2.1

O=C(O)c1cc([N+](=O)[O-])ccc1O
solubility (mole fraction)
Conditions	278.15 K	283.15 K	288.15 K	293.15 K	298.15 K	303.15 K	308.15 K	313.15 K	318.15 K	323.15 K
in 1,4-dioxane	–	–	0.105	0.112	0.12	0.129	0.137	0.147	0.158	0.168
in DMF	0.0752	0.0819	0.0894	0.0993	0.111	0.126	0.143	0.161	0.181	0.204
in NMP	0.105	0.111	0.119	0.13	0.141	0.156	0.17	0.187	0.204	0.223
in acetonitrile	0.0327	0.0366	0.0416	0.0481	0.0553	0.0632	0.0724	0.0814	0.0908	0.102
in ethanol	0.0281	0.0307	0.0338	0.0379	0.0429	0.0481	0.0541	0.0605	0.0675	0.0752
in ethyl acetate	0.0202	0.0234	0.027	0.031	0.0355	0.0404	0.0455	0.0509	0.0566	0.063
in ethylene glycol	0.00911	0.0116	0.0142	0.0164	0.0197	0.0233	–	–	–	–
